# pEC50: −log10 of the molar value.
# System: HCV replicon
# Experiment: Replicon based assay of HCV replication inhibition (NPT ELISA)
# Format: cell-based, Hepatitis C virus
# Conditions: Hepatitis C virus, replicon based assay of HCV replication inhibition; Table II; read-out: Activity
# Summary of the method: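 Huh-7 cells carrying a bicistronic HCV replicon (neo, EMCV-IRES-driven NS3–NS5B) treated overnight after seeding with usually 6 concentrations, 10 to 0.03 micromolar, for three days at 37° C without G418. Replication read as NPT level by captured ELISA; matched-DMSO wells and interferon alpha as controls.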
row,SMILES,pEC50
1,"CCCCCOc1ccc(Nc2nc(C(=O)Nc3ccc(C(F)(F)F)nc3)cs2)cc1C(F)(F)F [compound 233, 2-(4-(pentyloxy)-3-(trifluoromethyl)phenyl-amino)-N-(6-(trifluoromethyl)pyridin-3-yl)thiazole-4-carboxamide]",< 5.00
2,"CCCCCOc1ccc(Nc2nc(-c3ccc(CN(C)C)cc3)cs2)cc1C(F)(F)F [compound 234, 4-(4-((dimethylamino)methyl)phenyl)-N-(4-(pentyloxy)-3-(trifluoromethyl)phenyl)thia-zol-2-amine]",> 6.00
3,"CCCCCOc1ccc(Nc2nc([C@H]3CCCN(C)C3)cs2)cc1C(F)(F)F [compound 235, (S)-4-(1-methylpiperidin-3-yl)-N-(4-(pentyloxy)-3-(trifluoromethyl)phenyl)thia-zol-2-amine]",> 6.00
4,"CN1CCC[C@H](c2csc(Nc3ccc(Oc4ccccc4)cc3)n2)C1 [compound 236, (S)-4-(1-methylpiperidin-3-yl)-N-(4-phenoxyphenyl)thiazol-2-amine]",5.00 to 6.00
5,"CN1CCC[C@H](c2csc(Nc3cccc(OCc4ccccc4)c3)n2)C1 [compound 237, (S)-N-(3-(benzyloxy)phenyl)-4-(1-methylpiperidin-3-yl)thiazol-2-amine]",5.00 to 6.00
6,"FC(F)(F)c1cc(Nc2nc(-c3cccnc3)cs2)ccc1OC1CCCC1 [compound 238, N-(4-(cyclopentyloxy)-3-(trifluoromethyl)phenyl)-4-(pyridin-3-yl)thiazol-2-amine]",> 6.00
7,"CC(C)COc1ccc(Nc2nc(-c3cccnc3)cs2)cc1C(F)(F)F [compound 239, N-(4-isobutoxy-3-(trifluoromethyl)phenyl)-4-(pyridin-3-yl)thiazol-2-amine]",> 6.00
8,"FC(F)(F)c1cc(Nc2nc(-c3cccnc3)cs2)ccc1OCC1CC1 [compound 240, N-(4-(cyclopropylmethoxy)-3-(trifluoromeethyl)phenyl)-4-(pyridin-3-yl)thiazol-2-amine]",> 6.00
9,"Fc1ccc(-c2csc(Nc3ccc(OC4CCCC4)c(C(F)(F)F)c3)n2)cc1 [compound 241, N-(4-(cyclopentyloxy)-3-(trifluoromethyl)phenyl)-4-(4-fluorophenyl)thiazol-2-amine]",> 6.00
10,"CC(C)COc1ccc(Nc2nc(-c3ccc(F)cc3)cs2)cc1C(F)(F)F [compound 242, 4-(4-fluorophenyl)-N-(4-isobutoxy-3-(trifluoromethyl)phenyl)thia-zol-2-amine]",> 6.00
11,"Fc1ccc(-c2csc(Nc3ccc(OCC4CC4)c(C(F)(F)F)c3)n2)cc1 [compound 243, N-(4-(cyclopropylmethoxy)-3-(trifluoromethyl)phenyl)-4-(4-fluorophenyl)thiazol-2-amine]",> 6.00
12,"CC(C)COc1ccc(Nc2nc(-c3ccc(CC(=O)O)s3)cs2)cc1C(F)(F)F [compound 244, 2-(5-(2-(4-isobutoxy-3-(trifluoromethyl)phenyl-amino)thiazol-4-yl)thiophen-2-yl)acetic acid]",> 6.00
13,"Cc1sc(Nc2ccc(OC3CCCC3)c(C(F)(F)F)c2)nc1-c1ccc(CC(=O)O)cc1 [compound 245, 2-(4-(2-(4-(cyclopentyloxy)-3-(trifluoromethyl)phenyl-amino)-5-methylthiazol-4-yl)phenyl)acetic acid]",> 6.00
14,"Cc1sc(Nc2ccc(OCC(C)C)c(C(F)(F)F)c2)nc1-c1ccc(CC(=O)O)cc1 [compound 246, 2-(4-(2-(4-isobutoxy-3-(trifluoromethyl)phenyl-amino)-5-methylthiazol-4-yl)phenyl)acetic acid]",5.00 to 6.00
15,"O=C(O)Cc1ccc(-c2csc(Nc3ccc(OC4CCCC4)c(C(F)(F)F)c3)n2)s1 [compound 247, 2-(5-(2-(4-(cyclopentyloxy)-3-(trifluoromethyl)phenyl-amino)-thiazol-4-yl)thiophen-2-yl)acetic acid]",> 6.00
16,"COc1ccc(-c2csc(Nc3ccc(OC4CCCC4)c(C(F)(F)F)c3)n2)cc1 [compound 248, N-(4-(cyclopentyloxy)-3-(trifluoromethyl)phenyl)-4-(4-methoxyphenyl)thiazol-2-amine]",> 6.00
17,"COc1ccc(-c2csc(Nc3ccc(OCC(C)C)c(C(F)(F)F)c3)n2)cc1 [compound 249, N-(4-isobutoxy-3-(trifluoromethyl)phenyl)-4-(4-methoxyphenyl)thiazol-2-amine]",> 6.00
18,"COc1ccc(-c2csc(Nc3ccc(OCC4CC4)c(C(F)(F)F)c3)n2)cc1 [compound 250, N-(4-(cyclopropylmethoxy)-3-(trifluoromethyl)phenyl)-4-(4-methoxyphenyl)thiazol-2-amine]",> 6.00
19,"O=C1COc2ccc(-c3csc(Nc4ccc(OC5CCCC5)c(C(F)(F)F)c4)n3)cc2N1 [compound 251, 6-(2-(4-(cyclopentyloxy)-3-(trifluoromethyl)phenyl-amino)thiazol-4-yl)-2H-benzo[b][1,4]oxazin-3(4H)-one]",> 6.00
20,"CC(C)COc1ccc(Nc2nc(-c3ccc4c(c3)NC(=O)CO4)cs2)cc1C(F)(F)F [compound 252, 6-(2-(4-isobutoxy-3-(trifluoromethyl)phenyl-amino)thiazol-4-yl)-2H-benzo[b][1,4]oxazin-3(4H)-one]",> 6.00
21,"O=C1COc2ccc(-c3csc(Nc4ccc(OCC5CC5)c(C(F)(F)F)c4)n3)cc2N1 [compound 253, 6-(2-(4-(cyclopropylmethoxy)-3-(trifluoromthyl)phenyl-amino)thiazol-4-yl)-2H-benzo[b][1,4]oxazin-3(4H)-one]",5.00 to 6.00
22,"NC(=O)c1cc(-c2csc(Nc3ccc(OC4CCCC4)c(C(F)(F)F)c3)n2)ccc1O [compound 254, 5-(2-(4-(cyclopentyloxy)-3-(trifluoromethyl)phenyl-amino)thiazol-4-yl)-2-hydroxybenzamide]",> 6.00
23,"CC(C)COc1ccc(Nc2nc(-c3ccc(O)c(C(N)=O)c3)cs2)cc1C(F)(F)F [compound 255, 2-hydroxy-5-(2-(4-isobutoxy-3-(trifluoromethyl)phenyl-amino)thiazol-4-yl)benzamide]",> 6.00
24,"NC(=O)c1cc(-c2csc(Nc3ccc(OCC4CC4)c(C(F)(F)F)c3)n2)ccc1O [compound 256, 5-(2-(4-(cyclopropylmethoxy)-3-(trifluoromethyl)phenyl-amino)thiazol-4-yl)-2-hydroxybenzamide]",> 6.00
25,"Fc1ccc(-c2csc(Nc3ccc(OC4CCCC4)c(C(F)(F)F)c3)n2)cc1F [compound 257, N-(4-(cyclopentyloxy)-3-(trifluoromethyl)phenyl)-4-(3,4-difluorophenyl)thiazol-2-amine]",> 6.00
26,"Cc1sc(Nc2ccc(OCC3CC3)c(C(F)(F)F)c2)nc1-c1ccc(CC(=O)O)cc1 [compound 258, 2-(4-(2-(4-(cyclopropylmethoxy)-3-(trifluoromethyl)phenyl-amino)-5-methylthiazol-4-yl)phenyl)acetic acid]",> 6.00
27,"CCCCCOc1ccc(Nc2nc(-c3ccc(C(=O)NC)nc3)cs2)cc1C(F)(F)F [compound 259, N-methyl-5-(2-(4-(pentyloxy)-3-(trifluoromethyl)phenyl-amino)thiazol-4-yl)picolinamide]",> 6.00
28,"CCCCCOc1ccc(Nc2nc(CNCc3cccnc3)cs2)cc1C(F)(F)F [compound 260, N-(4-(pentyloxy)-3-(trifluoromethyl)phenyl)-4-((pyridin-3-ylmethylamino)methyl)thia-zol-2-amine]",> 6.00
29,CCCCCOc1ccc(Nc2nc(CNc3ccc(Cl)c(Cl)c3)cs2)cc1C(F)(F)F [compound 261],5.00 to 6.00

# — US8088806B2 (Achillion Pharmaceuticals, Inc., priority 2005, dated 2012)
